Laboratory results taken from patent US12258328B2, “6-membered heteroaryl-containing aminopyridine compounds as EGFR inhibitors” (YUHAN CORPORATION, priority 2021, dated 2025).
Read-outs that look alike come from different tables or passages of the source.

How the values were obtained:
EGFR del19/T790M/C797S = EGFR del19/T790M/C797S (Homo sapiens, UniProt P00533, C797S/DEL746-750/T790M); test: Biochemical EGFR kinase assay (Lance Ultra TR-FRET), triple mutant del19/T790M/C797S
How it was run: (§1)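 Step 1: compound in kinase buffer, 0.003–10 μM. Step 2: kinase reaction 1 h at room temperature. Step 4: TR-FRET read at 615/665 nm; IC50 calculated.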

EGFR L858R/T790M/C797S = EGFR L858R/T790M/C797S (Homo sapiens, UniProt P00533, C797S/L858R/T790M); test: Biochemical EGFR kinase assay (Lance Ultra TR-FRET), triple mutant L858R/T790M/C797S
How it was run: as §1

EGFR del19/C797S = EGFR del19/C797S (Homo sapiens, UniProt P00533, C797S/DEL746-750); test: Biochemical EGFR kinase assay (Lance Ultra TR-FRET), double mutant del19/C797S
How it was run: as §1

EGFR L858R/C797S = EGFR L858R/C797S (Homo sapiens, UniProt P00533, C797S/L858R); test: Biochemical EGFR kinase assay (Lance Ultra TR-FRET), double mutant L858R/C797S
How it was run: as §1

EGFR wildtype = EGFR wildtype (Homo sapiens, UniProt P00533); test: Biochemical EGFR kinase assay (Lance Ultra TR-FRET), wildtype
How it was run: as §1

[1] = IC50 del19/T790M/C797S (nM) 100 μM ATP, 100 μM ATP
[2] = Km ATP, read-out: IC50 del19/T790M/C797S (nM) Km ATP
[3] = IC50 L858R/T790M/C797S (nM) 100 μM ATP, 100 μM ATP
[4] = Km ATP, read-out: IC50 L858R/T790M/C797S (nM) Km ATP
[5] = IC50 del19/C797S (nM) 100 μM ATP, 100 μM ATP
[6] = Km ATP, read-out: IC50 del19/C797S (nM) Km ATP
[7] = IC50 L858R/C797S (nM) 100 μM ATP, 100 μM ATP
[8] = Km ATP, read-out: IC50 L858R/C797S (nM) Km ATP
[9] = IC50 WT (nM) 100 μM ATP, 100 μM ATP
[10] = Km ATP, read-out: IC50 WT (nM) Km ATP
[11] = ATP at Km, read-out: IC50 del19/T790M/C797S, Km ATP
[12] = IC50 del19/T790M/C797S, 100 μM ATP
[13] = ATP at Km, read-out: IC50 L858R/T790M/C797S, Km ATP
[14] = IC50 L858R/T790M/C797S, 100 μM ATP
[15] = ATP at Km, read-out: IC50 del19/C797S, Km ATP
[16] = ATP at Km, read-out: IC50 L858R/C797S, Km ATP
[17] = ATP at Km, read-out: IC50 WT, Km ATP

Chain of EGFR L858R/C797S (P00533 25-1210 C797S/L858R): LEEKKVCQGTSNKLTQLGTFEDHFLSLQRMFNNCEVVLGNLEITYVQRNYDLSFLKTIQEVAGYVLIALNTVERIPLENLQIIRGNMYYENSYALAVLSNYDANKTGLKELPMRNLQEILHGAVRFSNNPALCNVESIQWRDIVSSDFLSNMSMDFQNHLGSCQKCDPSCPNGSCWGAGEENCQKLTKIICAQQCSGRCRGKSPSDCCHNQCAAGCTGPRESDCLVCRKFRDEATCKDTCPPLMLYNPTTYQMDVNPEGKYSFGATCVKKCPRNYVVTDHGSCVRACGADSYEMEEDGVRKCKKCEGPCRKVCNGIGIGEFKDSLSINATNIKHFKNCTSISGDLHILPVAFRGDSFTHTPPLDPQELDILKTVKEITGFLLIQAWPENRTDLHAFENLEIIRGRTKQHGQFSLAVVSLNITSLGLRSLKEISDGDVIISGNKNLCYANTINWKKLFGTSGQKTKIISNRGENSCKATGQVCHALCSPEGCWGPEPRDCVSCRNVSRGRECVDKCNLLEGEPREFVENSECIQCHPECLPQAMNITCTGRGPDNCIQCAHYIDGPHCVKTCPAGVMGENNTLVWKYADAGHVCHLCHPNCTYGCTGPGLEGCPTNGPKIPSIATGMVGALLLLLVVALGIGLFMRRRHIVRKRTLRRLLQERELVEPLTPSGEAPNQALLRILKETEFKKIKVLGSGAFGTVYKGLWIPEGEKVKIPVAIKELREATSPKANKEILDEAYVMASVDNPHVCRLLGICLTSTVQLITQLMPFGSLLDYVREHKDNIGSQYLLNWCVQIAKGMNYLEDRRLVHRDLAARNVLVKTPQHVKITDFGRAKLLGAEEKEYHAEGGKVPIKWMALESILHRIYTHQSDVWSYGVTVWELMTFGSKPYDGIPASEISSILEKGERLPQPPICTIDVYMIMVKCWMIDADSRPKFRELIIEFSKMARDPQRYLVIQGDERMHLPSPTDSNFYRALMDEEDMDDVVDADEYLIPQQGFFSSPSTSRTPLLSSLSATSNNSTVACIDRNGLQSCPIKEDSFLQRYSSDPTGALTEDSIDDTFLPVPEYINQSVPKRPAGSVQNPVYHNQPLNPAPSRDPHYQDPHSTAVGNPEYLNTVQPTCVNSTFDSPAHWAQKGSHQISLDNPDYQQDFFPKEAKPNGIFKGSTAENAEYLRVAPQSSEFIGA
Chain of EGFR wildtype (P00533 25-1210): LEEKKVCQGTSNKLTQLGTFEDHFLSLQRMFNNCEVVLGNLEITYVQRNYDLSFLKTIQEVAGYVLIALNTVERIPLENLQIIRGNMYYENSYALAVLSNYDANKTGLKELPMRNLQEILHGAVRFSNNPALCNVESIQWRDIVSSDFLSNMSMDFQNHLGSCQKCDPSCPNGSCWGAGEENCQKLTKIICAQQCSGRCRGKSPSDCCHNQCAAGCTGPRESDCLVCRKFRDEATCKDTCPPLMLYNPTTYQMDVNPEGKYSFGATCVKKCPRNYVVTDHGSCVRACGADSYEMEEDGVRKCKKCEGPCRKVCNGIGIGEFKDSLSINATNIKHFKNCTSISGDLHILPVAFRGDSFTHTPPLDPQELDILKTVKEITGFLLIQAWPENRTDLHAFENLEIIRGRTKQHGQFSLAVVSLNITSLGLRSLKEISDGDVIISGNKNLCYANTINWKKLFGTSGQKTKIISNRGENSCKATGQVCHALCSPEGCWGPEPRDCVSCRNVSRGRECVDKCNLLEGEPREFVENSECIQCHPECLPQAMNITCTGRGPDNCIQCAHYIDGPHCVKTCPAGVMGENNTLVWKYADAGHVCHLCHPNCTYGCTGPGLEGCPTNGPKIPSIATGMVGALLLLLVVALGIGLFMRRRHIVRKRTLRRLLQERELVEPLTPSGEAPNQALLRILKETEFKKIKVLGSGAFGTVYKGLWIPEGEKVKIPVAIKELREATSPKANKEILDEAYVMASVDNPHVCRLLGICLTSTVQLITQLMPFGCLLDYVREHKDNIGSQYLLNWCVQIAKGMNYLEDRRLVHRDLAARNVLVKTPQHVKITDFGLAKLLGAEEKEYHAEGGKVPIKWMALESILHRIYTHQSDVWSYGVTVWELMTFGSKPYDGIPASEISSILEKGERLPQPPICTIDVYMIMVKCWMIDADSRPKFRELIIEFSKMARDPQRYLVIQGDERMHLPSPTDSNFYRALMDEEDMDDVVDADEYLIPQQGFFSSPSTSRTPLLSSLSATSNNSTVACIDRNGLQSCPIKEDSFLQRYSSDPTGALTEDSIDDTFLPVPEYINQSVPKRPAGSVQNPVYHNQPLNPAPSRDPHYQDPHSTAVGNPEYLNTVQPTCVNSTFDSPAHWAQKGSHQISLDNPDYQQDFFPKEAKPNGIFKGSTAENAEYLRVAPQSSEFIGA
Chain of EGFR del19/C797S (P00533 with tags, fused parts or gaps DEL746-750/C797S): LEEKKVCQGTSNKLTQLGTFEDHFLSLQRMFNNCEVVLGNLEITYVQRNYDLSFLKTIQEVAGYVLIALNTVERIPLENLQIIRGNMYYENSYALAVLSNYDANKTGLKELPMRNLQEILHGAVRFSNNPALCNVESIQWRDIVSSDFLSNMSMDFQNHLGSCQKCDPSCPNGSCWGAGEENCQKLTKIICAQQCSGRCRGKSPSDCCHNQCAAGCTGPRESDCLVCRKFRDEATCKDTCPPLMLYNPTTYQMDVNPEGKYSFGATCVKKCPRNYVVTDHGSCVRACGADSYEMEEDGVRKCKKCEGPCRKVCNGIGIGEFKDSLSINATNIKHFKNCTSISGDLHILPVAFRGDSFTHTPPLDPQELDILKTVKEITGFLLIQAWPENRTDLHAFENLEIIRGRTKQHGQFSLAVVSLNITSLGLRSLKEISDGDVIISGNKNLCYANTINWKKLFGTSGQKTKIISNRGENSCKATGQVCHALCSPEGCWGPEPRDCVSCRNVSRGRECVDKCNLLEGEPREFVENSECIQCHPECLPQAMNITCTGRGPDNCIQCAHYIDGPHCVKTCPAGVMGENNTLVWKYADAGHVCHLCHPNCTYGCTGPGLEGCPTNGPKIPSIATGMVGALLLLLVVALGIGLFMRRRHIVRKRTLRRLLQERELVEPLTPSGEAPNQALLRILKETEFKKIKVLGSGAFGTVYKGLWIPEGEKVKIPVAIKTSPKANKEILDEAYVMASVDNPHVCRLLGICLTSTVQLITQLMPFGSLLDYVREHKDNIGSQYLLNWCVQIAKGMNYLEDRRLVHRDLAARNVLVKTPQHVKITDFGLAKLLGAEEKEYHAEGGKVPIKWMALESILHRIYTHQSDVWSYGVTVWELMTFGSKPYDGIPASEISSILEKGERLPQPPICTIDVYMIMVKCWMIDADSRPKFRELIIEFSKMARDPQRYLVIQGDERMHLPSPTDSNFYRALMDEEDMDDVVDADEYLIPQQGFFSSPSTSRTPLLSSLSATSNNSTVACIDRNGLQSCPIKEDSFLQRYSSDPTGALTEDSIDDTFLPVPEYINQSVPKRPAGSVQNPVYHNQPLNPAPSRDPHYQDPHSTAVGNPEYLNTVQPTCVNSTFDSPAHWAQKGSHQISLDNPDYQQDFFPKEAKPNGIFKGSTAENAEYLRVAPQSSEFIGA
Chain of EGFR del19/T790M/C797S (P00533 with tags, fused parts or gaps DEL746-750/T790M/C797S): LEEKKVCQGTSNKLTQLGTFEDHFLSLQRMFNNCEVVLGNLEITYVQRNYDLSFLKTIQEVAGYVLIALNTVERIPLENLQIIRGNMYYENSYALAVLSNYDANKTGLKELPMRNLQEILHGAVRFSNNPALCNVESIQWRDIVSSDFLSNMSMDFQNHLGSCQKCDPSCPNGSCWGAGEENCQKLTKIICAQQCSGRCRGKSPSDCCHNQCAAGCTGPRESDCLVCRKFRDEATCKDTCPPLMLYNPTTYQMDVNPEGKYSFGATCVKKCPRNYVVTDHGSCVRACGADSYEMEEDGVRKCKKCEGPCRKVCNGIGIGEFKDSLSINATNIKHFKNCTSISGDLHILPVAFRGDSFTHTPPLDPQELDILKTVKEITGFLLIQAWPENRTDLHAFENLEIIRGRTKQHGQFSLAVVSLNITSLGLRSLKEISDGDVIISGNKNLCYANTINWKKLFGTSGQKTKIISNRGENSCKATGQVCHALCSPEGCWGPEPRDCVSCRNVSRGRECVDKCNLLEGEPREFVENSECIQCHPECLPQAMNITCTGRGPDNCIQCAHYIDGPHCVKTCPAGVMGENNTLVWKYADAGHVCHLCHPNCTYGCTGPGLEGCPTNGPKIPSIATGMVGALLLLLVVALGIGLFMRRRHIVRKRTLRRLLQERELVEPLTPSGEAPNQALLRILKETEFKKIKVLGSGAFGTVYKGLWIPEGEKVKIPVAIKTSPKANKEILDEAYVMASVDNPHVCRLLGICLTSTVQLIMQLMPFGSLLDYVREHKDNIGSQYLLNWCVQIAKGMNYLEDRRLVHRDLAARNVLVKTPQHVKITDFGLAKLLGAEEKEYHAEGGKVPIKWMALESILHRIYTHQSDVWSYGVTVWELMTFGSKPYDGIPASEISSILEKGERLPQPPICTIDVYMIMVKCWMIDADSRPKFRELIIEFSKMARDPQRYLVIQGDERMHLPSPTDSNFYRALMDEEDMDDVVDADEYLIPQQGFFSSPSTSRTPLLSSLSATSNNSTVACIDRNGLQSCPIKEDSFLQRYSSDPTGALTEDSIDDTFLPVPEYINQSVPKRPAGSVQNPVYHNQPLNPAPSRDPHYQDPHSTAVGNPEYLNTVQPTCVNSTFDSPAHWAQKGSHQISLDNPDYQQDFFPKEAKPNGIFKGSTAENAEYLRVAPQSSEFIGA

IC50 (EGFR del19/T790M/C797S; [1])	IC50 (EGFR del19/T790M/C797S; [2])	IC50 (EGFR L858R/T790M/C797S; [3])	IC50 (EGFR L858R/T790M/C797S; [4])	IC50 (EGFR del19/C797S; [5])	IC50 (EGFR del19/C797S; [6])	IC50 (EGFR L858R/C797S; [7])	IC50 (EGFR L858R/C797S; [8])	IC50 (EGFR wildtype; [9])	IC50 (EGFR wildtype; [10])	IC50 (EGFR del19/T790M/C797S; [11])	IC50 (EGFR del19/T790M/C797S; [12])	IC50 (EGFR L858R/T790M/C797S; [13])	IC50 (EGFR L858R/T790M/C797S; [14])	IC50 (EGFR del19/C797S; [15])	IC50 (EGFR del19/C797S; IC50 del19/C797S, 100 μM ATP)	IC50 (EGFR L858R/C797S; [16])	IC50 (EGFR L858R/C797S; IC50 L858R/C797S, 100 μM ATP)	IC50 (EGFR wildtype; [17])	IC50 (EGFR wildtype; IC50 WT, 100 μM ATP)	Structure (SMILES)
0.2 nM	0.2 nM	0.1 nM	0.1 nM	0.1 nM	0.1 nM	0.8 nM	0.1 nM	52.6 nM	0.3 nM											CN(C)Cc1ccc(-c2cnc(Nc3ccnc(-c4cnn(S(=O)(=O)C5CC5)c4)n3)cc2N[C@H]2CC[C@@](C)(O)CC2)nc1 [Example 31, (1s,4s)-4-((6′-((2-(1-(Cyclopropylsulfonyl)-1H-pyrazol-4-yl)pyrimidin-4-yl)amino)-5-((dimethylamino)methyl)-[2,3′-bipyridin]-4′-yl)amino)-1-methylcyclohexan-1-ol]
0.8 nM	1.2 nM	1.3 nM	0.4 nM	52.3 nM	37.5 nM	223 nM	10.5 nM	> 10000 nM	212 nM											CN1CCN(Cc2ccc(-c3cnc(Nc4ccnc(-c5cnn(S(=O)(=O)C6CC6)c5)n4)cc3N3CCC(C)(CO)CC3)nc2)CC1 [Example 1, (1-(6′-((2-(1-(Cyclopropylsulfonyl)-1H-pyrazol-4-yl)pyrimidin-4-yl)amino)-5-((4-methylpiperazin-1-yl)methyl)-[2,3′-bipyridin]-4′-yl)-4-methylpiperidin-4-yl)methanol]
	345 nM		43.9 nM		3820 nM		1670 nM		235 nM											COc1c(F)ccnc1-c1cnc(Nc2ccnc(-c3cnn(CC(F)F)c3)n2)cc1N[C@H]1CC[C@@](C)(O)CC1 [Example 336, (1s,4s)-4-((6′-((2-(1-(2,2-Difluoroethyl)-1H-pyrazol-4-yl)pyrimidin-4-yl)amino)-4-fluoro-3-methoxy-[2,3′-bipyridin]-4′-yl)amino)-1-methylcyclohexan-1-ol]
	0.01 nM		0.03 nM		2 nM		0.8 nM		17.1 nM											CN1CCC(Oc2ccc(-c3cnc(Nc4ccnc(-c5cnc6c(c5)CCCO6)n4)cc3N[C@H]3CC[C@@](C)(O)CC3)nc2)CC1 [Example 142, (1s,4s)-4-((6′-((2-(3,4-Dihydro-2H-pyrano[2,3-b]pyridin-6-yl)pyrimidin-4-yl)amino)-5-((1-methylpiperidin-4-yl)oxy)-[2,3′-bipyridin]-4′-yl)amino)-1-methylcyclohexan-1-ol]
										0.5 nM	1.3 nM	0.4 nM	3 nM	13.1 nM	21 nM	19.9 nM	1530 nM	2970 nM	> 10000 nM	O=S(=O)(C1CC1)n1cc(-c2nccc(Nc3cc(NC4CCC(F)(CO)CC4)c(-c4cccc(F)n4)cn3)n2)cn1 (stereo not shown) [Example 162, (4-((6′-((2-(1-(Cyclopropylsulfonyl)-1H-pyrazol-4-yl)pyrimidin-4-yl)amino)-6-fluoro-[2,3′-bipyridin]-4′-yl)amino)-1-fluorocyclohexyl)methanol]
										0.1 nM	0.2 nM	0.1 nM	0.2 nM	0.3 nM	0.3 nM	0.2 nM	0.6 nM	0.6 nM	134 nM	O=C(c1ccc(-c2cnc(Nc3ccnc(-c4cnn(S(=O)(=O)C5CC5)c4)n3)cc2N[C@H]2CC[C@@H](CO)CC2)nc1)N1CCOCC1 [Example 200, (6′-((2-(1-(Cyclopropylsulfonyl)-1H-pyrazol-4-yl)pyrimidin-4-yl)amino)-4′-(((1s,4s)-4-(hydroxymethyl)cyclohexyl)amino)-[2,3′-bipyridin]-5-yl)(morpholino)methanone]
										5.7 nM		3.2 nM		28.6 nM		8.5 nM		245 nM		C[C@]1(O)CC[C@@H](Nc2cc(Nc3nc(-c4cnn(S(=O)(=O)C5CC5)c4)ncc3F)ncc2-c2ccc(CC(F)(F)F)cn2)CC1 [Example 299, (1s,4s)-4-((6′-((2-(1-(Cyclopropylsulfonyl)-1H-pyrazol-4-yl)-5-fluoropyrimidin-4-yl)amino)-5-(2,2,2-trifluoroethyl)-[2,3′-bipyridin]-4′-yl)amino)-1-methylcyclohexan-1-ol]
0.4 nM	0.6 nM	0.4 nM	0.3 nM	0.9 nM	0.4 nM	15.1 nM	0.4 nM	406 nM	0.4 nM											COC1CN(c2ccc(-c3cnc(Nc4ccnc(-c5cnn(S(=O)(=O)C6CC6)c5)n4)cc3N[C@H]3CC[C@@](C)(O)CC3)nc2)C1 [Example 90, (1s,4s)-4-((6′-((2-(1-(Cyclopropylsulfonyl)-1H-pyrazol-4-yl)pyrimidin-4-yl)amino)-5-(3-methoxyazetidin-1-yl)-[2,3′-bipyridin]-4′-yl)amino)-1-methylcyclohexan-1-ol]
1.8 nM	1.1 nM	0.8 nM	0.6 nM	3.1 nM	2.2 nM	21.6 nM	0.9 nM	> 10000 nM	21.9 nM											CC(C)(O)c1cc(-c2cnc(Nc3ccnc(-c4cnn(S(=O)(=O)C5CC5)c4)n3)cc2N[C@H]2CC[C@@](C)(O)CC2)ncc1F [Example 104, (1s,4s)-4-((6′-((2-(1-(Cyclopropylsulfonyl)-1H-pyrazol-4-yl)pyrimidin-4-yl)amino)-5-fluoro-4-(2-hydroxypropan-2-yl)-[2,3′-bipyridin]-4′-yl)amino)-1-methylcyclohexan-1-ol]
											0.2 nM		0.2 nM		0.6 nM		2.1 nM		6340 nM	C[C@]1(O)CC[C@@H](Nc2cc(Nc3ccnc(-c4cnn(S(=O)(=O)C5CC5)c4)n3)ncc2-c2cc(NCCN3CC(F)C3)ccn2)CC1 [Example 281, (1s,4s)-4-((6′-((2-(1-(Cyclopropylsulfonyl)-1H-pyrazol-4-yl)pyrimidin-4-yl)amino)-4-((2-(3-fluoroazetidin-1-yl)ethyl)amino)-[2,3′-bipyridin]-4′-yl)amino)-1-methylcyclohexan-1-ol]
1.6 nM	0.2 nM	0.2 nM	0.1 nM	0.4 nM	0.3 nM	11.4 nM	0.4 nM	1480 nM	3.6 nM											CC(C)(O)c1ccc(-c2cnc(Nc3ccnc(-c4cnn(S(=O)(=O)C5CC5)c4)n3)cc2N[C@H]2CC[C@@](C)(O)CC2)nn1 [Example 86, (1s,4s)-4-((2-((2-(1-(Cyclopropylsulfonyl)-1H-pyrazol-4-yl)pyrimidin-4-yl)amino)-5-(6-(2-hydroxypropan-2-yl)pyridazin-3-yl)pyridin-4-yl)amino)-1-methylcyclohexan-1-ol]
										0.02 nM	0.1 nM	0.03 nM	0.1 nM	0.1 nM	0.1 nM	0.1 nM	0.4 nM	0.5 nM	108 nM	CN(C)C[C@H]1CC[C@@H](Nc2cc(Nc3ccnc(-c4cnn(S(=O)(=O)C5CC5)c4)n3)ncc2-c2cccc(F)n2)CC1 [Example 274, N^6′-(2-(1-(Cyclopropylsulfonyl)-1H-pyrazol-4-yl)pyrimidin-4-yl)-N^4′-((1s,4s)-4-((dimethylamino)methyl)cyclohexyl)-6-fluoro-[2,3′-bipyridine]-4′,6′-diamine]
